Data on three compounds can be found in US11685719B2, “Pyridinone MK2 inhibitors and uses thereof” (Xinthera, Inc., priority 2021, dated 2023).

Where two headings read alike, the source gives them in different places. Where only a bound is given, the exact number is not on record here.

For one test, the target named is p38a/MK2 (Homo sapiens (Human), UniProt P49137+Q16539). Put plainly: biochemical. Conditions: 10-point 1:3 dilution, 10 μM ATP, 2 h incubation. In short, it runs like this: (§1)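 Recombinant N-terminal GST-tagged MK2 (F46-H400) or PRAK (M1-Q471), expressed in E. coli, were activated by p38. Activity read as phosphorylation of FITC-conjugated HSP27 peptide. IC50 taken as half-maximal inhibition of activation from 10-point 1:3 dilutions, top dose 1 or 10 μM for MK2 and 300 μM for PRAK.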
Sequence of p38a/MK2 (Q16539 whole entry): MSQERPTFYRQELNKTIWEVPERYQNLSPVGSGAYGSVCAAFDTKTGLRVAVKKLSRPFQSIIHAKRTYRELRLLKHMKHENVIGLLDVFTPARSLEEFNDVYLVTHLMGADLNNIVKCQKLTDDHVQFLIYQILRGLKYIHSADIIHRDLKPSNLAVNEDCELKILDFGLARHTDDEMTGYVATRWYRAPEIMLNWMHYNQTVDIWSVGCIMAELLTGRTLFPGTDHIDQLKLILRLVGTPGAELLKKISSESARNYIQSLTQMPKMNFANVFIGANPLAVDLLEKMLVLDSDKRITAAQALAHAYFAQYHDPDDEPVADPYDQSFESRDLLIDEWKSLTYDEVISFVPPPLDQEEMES
Sequence of p38a/MK2 (P49137 46-400): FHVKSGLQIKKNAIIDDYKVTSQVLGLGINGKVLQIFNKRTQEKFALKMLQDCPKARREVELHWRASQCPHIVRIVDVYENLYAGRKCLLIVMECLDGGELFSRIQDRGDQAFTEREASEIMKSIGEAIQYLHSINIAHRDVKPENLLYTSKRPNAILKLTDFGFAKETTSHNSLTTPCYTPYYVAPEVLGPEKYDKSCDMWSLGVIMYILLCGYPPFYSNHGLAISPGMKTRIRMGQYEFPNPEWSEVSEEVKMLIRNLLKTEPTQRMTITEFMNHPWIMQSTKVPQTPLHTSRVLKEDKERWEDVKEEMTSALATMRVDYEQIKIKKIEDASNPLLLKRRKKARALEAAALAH

The next test addresses p38a/PRAK (Homo sapiens (Human), UniProt Q16539). Put plainly: biochemical. The following applies: 10-point 1:3 dilution, top dose 300 μM; 10 μM ATP, 2 h incubation; read-out: p38a/PRAK Enzyme pIC50 (converted). In short, it runs like this: as §1
The mark [1] stands for this setting: top dose 1 μM, read-out: p38a/MK2 (1 μM) Enzyme pIC50 (converted).

Sequence of p38a/PRAK (Q16539 whole entry): as the sequence (Q16539 whole entry) above

`Cc1cnc(-n2cccc([C@@](C)(O)C3CC3)c2=O)cc1-n1c(C)cc(OCc2ncc(F)cc2F)c(Cl)c1=O` (single isomer, unassigned) [Example 14D, rel-3-chloro-2′-[3-(1-cyclopropyl-1-hydroxyethyl)-2-oxopyridin-1-yl]-4-[(3,5-difluoropyridin-2-yl)methoxy]-5′,6-dimethyl-[1,4′-bipyridin]-2-one]: the IC50 on p38a/MK2 (setting [1]) was more than 1000 nM; at p38a/PRAK, more than 316000 nM.
Consider `Cc1cnc(-n2cccc(C(C)(C)O)c2=O)cc1-n1c(C)cc(OCc2ncc(F)cc2F)c(Cl)c1=O` (single isomer, unassigned) [Example 1B, rel-3-chloro-4-[(3,5-difluoropyridin-2-yl)methoxy]-2′-[3-(2-hydroxypropan-2-yl)-2-oxopyridin-1-yl]-5′,6-dimethyl-[1,4′-bipyridin]-2-one], for which the IC50 is 398 nM at p38a/MK2 (top dose 10 μM, read-out: p38a/MK2 (10 μM) Enzyme pIC50 (converted)) and more than 316000 nM at p38a/PRAK.
For the compound `Cc1cnc(-n2cccc(C(C)(C)O)c2=O)cc1-n1c(C)cc(OCc2ncc(Cl)cc2F)c(Cl)c1=O` (single isomer, unassigned) [Example 4A, rel-3-chloro-4-[(5-chloro-3-fluoropyridin-2-yl)methoxy]-2′-[3-(2-hydroxypropan-2-yl)-2-oxopyridin-1-yl]-5′,6-dimethyl-[1,4′-bipyridin]-2-one], the results for the IC50 on p38a/MK2 (setting [1]) and on p38a/PRAK were 2 nM and 5010 nM, respectively.
